Test results taken from ChEMBL document CHEMBL1201862, “PubChem BioAssay data set” (2004).
Values belong to the molecule of their own block, whether it stands above or below them. Active and inactive are the calls of the source. Unless noted, no cut-off for these calls is given here.

Experiments:
Coagulation factor XII = biological target: T1, Coagulation factor XII (Homo sapiens, UniProt P00748); test: activated coagulation factor XII inhibitor potency, concentration-effect curve, cell-free (AID 716); format: functional
T1 sequence (P00748 whole entry): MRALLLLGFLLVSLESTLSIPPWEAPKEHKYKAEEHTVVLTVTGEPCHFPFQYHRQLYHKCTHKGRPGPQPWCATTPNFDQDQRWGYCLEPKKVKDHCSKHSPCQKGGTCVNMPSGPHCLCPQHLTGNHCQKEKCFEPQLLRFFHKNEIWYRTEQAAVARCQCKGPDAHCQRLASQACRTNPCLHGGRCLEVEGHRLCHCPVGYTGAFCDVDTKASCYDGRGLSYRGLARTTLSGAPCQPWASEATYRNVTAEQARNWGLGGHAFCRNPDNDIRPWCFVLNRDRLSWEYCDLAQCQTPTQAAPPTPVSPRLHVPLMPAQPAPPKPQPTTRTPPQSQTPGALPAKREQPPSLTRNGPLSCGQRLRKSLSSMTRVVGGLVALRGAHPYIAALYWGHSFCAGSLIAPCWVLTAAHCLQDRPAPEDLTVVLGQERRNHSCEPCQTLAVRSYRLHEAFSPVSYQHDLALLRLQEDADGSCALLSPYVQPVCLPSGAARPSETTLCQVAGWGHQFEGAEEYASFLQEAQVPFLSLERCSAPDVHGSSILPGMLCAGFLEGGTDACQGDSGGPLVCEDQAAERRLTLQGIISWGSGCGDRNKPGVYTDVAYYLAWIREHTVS

Integrin alpha-L = Integrin alpha-L (Mus musculus, UniProt P24063); test: modulators of CD8 T cell-vesicle binding, dose response, powder samples, mouse 2C CD8+ cells (AID 504565); format: functional
T-cell = test: loss of vesicle association with mouse CD8+ T cells – mouse 2C CD8+ T cells, flow cytometry, dose response (AID 485284); format: functional
[1] = biological target: 1-acylglycerol-3-phosphate O-acyltransferase ABHD5/Perilipin-5 (Homo sapiens, UniProt Q00G26+Q8WTS1); test: Luminescence-based biochemical high throughput dose response assay for inhibitors of the interaction of the lipase co-activator protein, abhydrolase domain containing 5 (ABHD5) with perilipin-5 (MLDP; PLIN5) (2K validation set). [Related pubchem assays (depositor defined):AID493035, AID493241]
Perilipin-1/ABHD5 = Perilipin-1/ABHD5 (Homo sapiens, UniProt O60240+Q8WTS1); test: Luminescence-based biochemical high throughput dose response assay for inhibitors of the interaction of the lipase co-activator protein, abhydrolase domain containing 5 (ABHD5) with perilipin-1 (PLIN1) (2K validation set). [Related pubchem assays (depositor defined):AID493027, AID493057]
Saccharomyces cerevisiae = test: S. cerevisiae Caspase-1/ASC signal blockers IC50, NALP1 inhibitor project selectivity test (AID 488863); format: functional, organism-based
[2] = biological target: NACHT, LRR and PYD domains-containing protein 1 (Homo sapiens, UniProt Q9C000); test: NALP1 inhibitors in yeast, dose response, luminescent (AID 488860); format: functional
[3] = tested on: Streptococcus sp. 'group A'; test: Streptococcus pyogenes SK(-)GAS viability under kanamycin – luminescence, BacTiterGlo, confirmation, counter-screen for streptokinase expression inhibitor project, dose response (AID 1900); format: functional, organism-based
Caspase-3 = biological target: T2, Caspase-3 (Homo sapiens, UniProt P42574); test: activation of caspase-3 zymogen – biochemical, absorbance, dose response (AID 489014)
T2 sequence (P42574 whole entry): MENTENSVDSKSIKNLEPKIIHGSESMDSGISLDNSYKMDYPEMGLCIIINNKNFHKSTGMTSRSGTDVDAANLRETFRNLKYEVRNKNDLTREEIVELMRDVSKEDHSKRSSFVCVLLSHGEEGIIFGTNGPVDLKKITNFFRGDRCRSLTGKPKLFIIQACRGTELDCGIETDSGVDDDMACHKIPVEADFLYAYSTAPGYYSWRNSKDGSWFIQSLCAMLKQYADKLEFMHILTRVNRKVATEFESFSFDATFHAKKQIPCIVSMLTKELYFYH

Caspase-7 = biological target: T3, Caspase-7 (Homo sapiens, UniProt P55210); test: activation of caspase-7 zymogen – biochemical, absorbance, counter-screen for procaspase-3 activator project, dose response (AID 489013)
T3 sequence (P55210 whole entry): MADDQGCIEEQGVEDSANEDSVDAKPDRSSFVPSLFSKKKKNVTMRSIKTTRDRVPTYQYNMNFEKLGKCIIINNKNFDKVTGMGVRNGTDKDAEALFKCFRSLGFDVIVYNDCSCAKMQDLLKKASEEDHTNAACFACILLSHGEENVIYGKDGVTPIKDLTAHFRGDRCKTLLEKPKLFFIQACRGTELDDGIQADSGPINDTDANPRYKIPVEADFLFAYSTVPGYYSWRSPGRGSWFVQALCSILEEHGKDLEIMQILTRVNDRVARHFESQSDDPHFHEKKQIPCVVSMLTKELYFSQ

Streptococcus = test: GAS UMAA2166 growth inhibition – luminescence, BacTiterGlo, counter-screen for streptokinase expression inhibitor project, dose response (AID 1915); format: functional, organism-based;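 note: potency for reduction of bacterial viability or growth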
[4] = biological target: T4, Protein phosphatase methylesterase 1 (Homo sapiens, UniProt Q9Y570); test: Late stage results from the probe development effort to identify inhibitors of the protein methylesterase PME-1: Gel-based Activity-Based Protein Profiling (ABPP) IC50: Purified enzyme.; format: functional
[5] = biological target: T4, Protein phosphatase methylesterase 1; test: endogenous PME-1 and serine hydrolase inhibition – cell lysate, mouse brain cytosol, FP-rhodamine, gel ABPP, selectivity assay for PME-1 inhibitor project, dose response, panel member PME-1 Assay Panel member description: Inhibition of endogenously expressed PME-1 (AID 2366)

T4 sequence (Q9Y570 whole entry): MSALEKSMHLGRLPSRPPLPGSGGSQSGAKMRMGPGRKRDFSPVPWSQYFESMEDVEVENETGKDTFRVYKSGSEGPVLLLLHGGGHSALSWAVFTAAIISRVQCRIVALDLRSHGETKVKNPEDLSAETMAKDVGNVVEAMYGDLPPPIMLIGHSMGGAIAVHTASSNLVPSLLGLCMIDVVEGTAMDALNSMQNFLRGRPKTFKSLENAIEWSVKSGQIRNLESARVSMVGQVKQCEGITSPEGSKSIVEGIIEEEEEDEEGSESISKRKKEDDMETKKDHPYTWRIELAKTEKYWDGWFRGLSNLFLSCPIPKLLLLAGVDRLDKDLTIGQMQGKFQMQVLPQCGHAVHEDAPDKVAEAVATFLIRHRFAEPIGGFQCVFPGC
Chain of Integrin alpha-L (P24063 whole entry): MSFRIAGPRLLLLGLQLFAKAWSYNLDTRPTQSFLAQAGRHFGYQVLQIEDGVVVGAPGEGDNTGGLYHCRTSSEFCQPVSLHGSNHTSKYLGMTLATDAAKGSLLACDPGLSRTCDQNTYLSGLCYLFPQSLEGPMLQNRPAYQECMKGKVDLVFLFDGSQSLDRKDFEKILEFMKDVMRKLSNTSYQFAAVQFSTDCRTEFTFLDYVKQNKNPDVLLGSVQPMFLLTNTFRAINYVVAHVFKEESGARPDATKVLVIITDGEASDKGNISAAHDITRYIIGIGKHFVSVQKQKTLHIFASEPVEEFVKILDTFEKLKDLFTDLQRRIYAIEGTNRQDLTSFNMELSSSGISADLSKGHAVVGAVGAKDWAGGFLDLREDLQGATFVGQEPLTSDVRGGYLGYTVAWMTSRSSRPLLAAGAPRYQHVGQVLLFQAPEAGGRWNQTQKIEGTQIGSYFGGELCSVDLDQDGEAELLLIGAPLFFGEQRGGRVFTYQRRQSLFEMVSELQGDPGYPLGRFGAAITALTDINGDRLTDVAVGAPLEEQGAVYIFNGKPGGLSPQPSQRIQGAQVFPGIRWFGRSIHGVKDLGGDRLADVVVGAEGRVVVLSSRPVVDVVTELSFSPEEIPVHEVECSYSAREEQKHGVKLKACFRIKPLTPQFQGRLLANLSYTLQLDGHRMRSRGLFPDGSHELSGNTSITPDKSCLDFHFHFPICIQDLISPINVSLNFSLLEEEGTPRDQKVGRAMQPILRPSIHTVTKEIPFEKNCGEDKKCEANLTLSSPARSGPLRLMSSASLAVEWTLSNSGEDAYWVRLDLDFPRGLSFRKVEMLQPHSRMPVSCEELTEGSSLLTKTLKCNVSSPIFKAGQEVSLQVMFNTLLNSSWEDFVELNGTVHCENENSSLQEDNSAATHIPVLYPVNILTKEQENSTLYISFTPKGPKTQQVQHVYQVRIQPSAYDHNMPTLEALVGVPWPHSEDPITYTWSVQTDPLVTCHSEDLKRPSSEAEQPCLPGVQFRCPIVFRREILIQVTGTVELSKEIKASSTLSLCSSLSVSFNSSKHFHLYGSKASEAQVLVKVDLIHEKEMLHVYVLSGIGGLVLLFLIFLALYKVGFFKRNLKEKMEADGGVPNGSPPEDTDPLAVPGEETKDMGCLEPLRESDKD
Chain of Perilipin-1/ABHD5 (Q8WTS1 whole entry, the tested form may be a part): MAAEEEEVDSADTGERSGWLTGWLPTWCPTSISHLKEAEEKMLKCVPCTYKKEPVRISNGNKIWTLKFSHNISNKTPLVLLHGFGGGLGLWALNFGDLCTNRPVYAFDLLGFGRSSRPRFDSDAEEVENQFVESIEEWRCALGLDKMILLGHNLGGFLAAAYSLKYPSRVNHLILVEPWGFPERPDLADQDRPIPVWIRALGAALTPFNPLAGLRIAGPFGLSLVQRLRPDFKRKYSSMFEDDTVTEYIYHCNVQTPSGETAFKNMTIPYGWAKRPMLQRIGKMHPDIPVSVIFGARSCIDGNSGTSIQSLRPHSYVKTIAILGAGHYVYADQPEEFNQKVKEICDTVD
Chain of Perilipin-1/ABHD5 (O60240 whole entry, the tested form may be a part): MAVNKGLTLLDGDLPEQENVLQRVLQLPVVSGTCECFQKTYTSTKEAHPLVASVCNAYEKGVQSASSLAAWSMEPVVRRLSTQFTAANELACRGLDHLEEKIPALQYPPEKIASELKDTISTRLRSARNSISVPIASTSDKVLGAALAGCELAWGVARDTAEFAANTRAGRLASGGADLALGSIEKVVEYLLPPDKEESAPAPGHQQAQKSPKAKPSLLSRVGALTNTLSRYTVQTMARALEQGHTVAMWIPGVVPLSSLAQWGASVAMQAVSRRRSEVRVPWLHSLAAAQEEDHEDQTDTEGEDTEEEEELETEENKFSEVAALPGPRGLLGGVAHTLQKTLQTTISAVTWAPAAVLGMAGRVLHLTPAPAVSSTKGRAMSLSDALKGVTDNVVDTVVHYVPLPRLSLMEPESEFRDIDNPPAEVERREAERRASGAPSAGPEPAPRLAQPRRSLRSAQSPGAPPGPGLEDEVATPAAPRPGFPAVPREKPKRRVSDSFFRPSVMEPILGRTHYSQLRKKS
Chain of 1-acylglycerol-3-phosphate O-acyltransferase ABHD5/Perilipin-5 (Q00G26 whole entry, the tested form may be a part): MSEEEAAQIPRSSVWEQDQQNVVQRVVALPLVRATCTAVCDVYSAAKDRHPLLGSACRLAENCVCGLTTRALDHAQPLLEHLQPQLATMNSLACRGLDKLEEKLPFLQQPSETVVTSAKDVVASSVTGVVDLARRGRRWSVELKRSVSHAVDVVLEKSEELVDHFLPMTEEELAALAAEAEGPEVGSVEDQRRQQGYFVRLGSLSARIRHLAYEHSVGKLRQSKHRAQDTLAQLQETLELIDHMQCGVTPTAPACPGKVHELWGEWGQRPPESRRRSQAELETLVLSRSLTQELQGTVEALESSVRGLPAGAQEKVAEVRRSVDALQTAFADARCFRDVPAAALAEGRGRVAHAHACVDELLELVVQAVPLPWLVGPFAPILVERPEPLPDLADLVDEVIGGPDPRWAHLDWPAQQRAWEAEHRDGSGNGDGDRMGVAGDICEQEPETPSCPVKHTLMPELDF
Chain of 1-acylglycerol-3-phosphate O-acyltransferase ABHD5/Perilipin-5 (Q8WTS1 whole entry, the tested form may be a part): as the sequence (Q8WTS1 whole entry, the tested form may be a part) above
Chain of NACHT, LRR and PYD domains-containing protein 1 (Q9C000 1-1212 limits assumed): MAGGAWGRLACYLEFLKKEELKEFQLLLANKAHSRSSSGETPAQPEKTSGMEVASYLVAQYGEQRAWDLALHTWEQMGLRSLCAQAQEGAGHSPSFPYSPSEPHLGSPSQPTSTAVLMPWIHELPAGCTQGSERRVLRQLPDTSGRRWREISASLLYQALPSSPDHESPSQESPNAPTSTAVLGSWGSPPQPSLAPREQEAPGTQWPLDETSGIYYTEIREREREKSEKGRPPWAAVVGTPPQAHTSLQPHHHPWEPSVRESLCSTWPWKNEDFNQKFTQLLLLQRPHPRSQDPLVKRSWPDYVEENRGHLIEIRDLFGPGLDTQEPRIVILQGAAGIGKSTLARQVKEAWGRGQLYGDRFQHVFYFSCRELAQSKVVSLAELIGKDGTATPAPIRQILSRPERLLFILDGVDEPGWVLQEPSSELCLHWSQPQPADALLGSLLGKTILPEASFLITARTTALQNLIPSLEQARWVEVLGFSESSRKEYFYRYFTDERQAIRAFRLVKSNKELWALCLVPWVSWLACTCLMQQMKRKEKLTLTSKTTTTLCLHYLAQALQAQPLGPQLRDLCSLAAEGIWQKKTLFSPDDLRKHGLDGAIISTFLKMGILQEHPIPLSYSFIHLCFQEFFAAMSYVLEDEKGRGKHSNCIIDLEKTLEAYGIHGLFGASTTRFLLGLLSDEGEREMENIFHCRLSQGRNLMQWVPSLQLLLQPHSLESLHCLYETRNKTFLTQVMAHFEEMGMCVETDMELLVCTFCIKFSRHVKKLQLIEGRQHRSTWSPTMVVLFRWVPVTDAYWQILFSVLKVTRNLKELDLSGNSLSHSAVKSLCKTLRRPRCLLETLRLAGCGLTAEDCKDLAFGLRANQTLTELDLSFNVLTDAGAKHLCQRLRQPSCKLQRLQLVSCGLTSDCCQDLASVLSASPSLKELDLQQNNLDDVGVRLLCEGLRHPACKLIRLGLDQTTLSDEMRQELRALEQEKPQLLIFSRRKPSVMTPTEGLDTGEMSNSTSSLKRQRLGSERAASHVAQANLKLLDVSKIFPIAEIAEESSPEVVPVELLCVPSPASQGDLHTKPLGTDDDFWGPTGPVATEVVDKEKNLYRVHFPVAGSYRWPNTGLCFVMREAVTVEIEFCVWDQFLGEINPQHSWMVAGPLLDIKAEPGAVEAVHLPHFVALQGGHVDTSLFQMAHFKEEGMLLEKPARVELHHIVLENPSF
Chain of NACHT, LRR and PYD domains-containing protein 1 (Q9C000 1213-1473 limits assumed): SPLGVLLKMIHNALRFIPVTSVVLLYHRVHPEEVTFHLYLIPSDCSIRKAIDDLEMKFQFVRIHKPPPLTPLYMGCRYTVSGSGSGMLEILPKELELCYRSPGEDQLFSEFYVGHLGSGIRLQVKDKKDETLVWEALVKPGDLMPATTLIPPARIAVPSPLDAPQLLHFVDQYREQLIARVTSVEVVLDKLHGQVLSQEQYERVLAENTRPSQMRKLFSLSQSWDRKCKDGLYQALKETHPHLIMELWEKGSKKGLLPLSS

IC50 (Coagulation factor XII): > 50 µM (inactive)
Compound: COc1ccc(C(=O)c2c(C)oc3ccc(O)c(CN4CCOCC4)c23)cc1

Compound: O=C(O)C1CCC(Cn2c(SCc3cc(=O)n4cc(Cl)ccc4n3)nc3ccsc3c2=O)CC1 (stereo not drawn)
EC50 (Integrin alpha-L): 51.9 µM (inactive)
EC50 (T-cell): 18.2 µM (active)

IC50 [1]: 4.85 µM (active)
IC50 (Perilipin-1/ABHD5): 4.8 µM (active)
Compound: COc1ccc(O)c(C(=O)/C=C/c2cc3ccccc3o2)c1

Compound: CCCOc1ccccc1NC(=O)/C=C/C(N)=O
IC50 (Saccharomyces cerevisiae): 5.33 µM (active)
IC50 [2]: 8.5 µM (active)

Compound: O=C1C2C(c3ccccc3)=NN(c3ccccc3)C2C(=O)N1c1ccccc1 (stereo not drawn)
EC50 [3]: 1.02 µM (active)
EC50 (Caspase-3): > 85.3 µM (inactive)
EC50 (Caspase-7): > 85.3 µM (inactive)
EC50 (Streptococcus): 5.11 µM (active)

IC50 [4]: > 20 µM (not active)
IC50 [5]: > 20 µM (inactive)
Compound: CS(=O)(=O)/C(=C/c1cccn1S(=O)(=O)c1ccccc1)CN
